Source: publication PMC11276849, “A Female-Biased Chemosensory Protein PxutCSP19 in the Antennae of Papilio xuthus Tuned to Host Volatiles and Insecticides” (Insects, 2024)
Read-outs that look alike come from different tables or passages of the source.

Molecular target: PxutCSP19 (Papilio xuthus, UniProt A0A194QJK0)
Assay: Fluorescence competitive binding assay (1-NPN displacement), wildtype PxutCSP19
Conditions: for inhibition at 20 µM: read-out: F.D. (fluorescent displacement rate of ligands), Wildtype (WT); for inhibition at 20 µM / F.D. (fluorescent displacement rate of ligands): ligand at 20 μM, PxutCSP19/1-NPN each 2 μM, NB = no binding; for 1-NPN fluorescence displaced / binding with PxutCSP19 (in words): wildtype; for 1-NPN fluorescence displaced: ligand at 36 μM
Source text: The open reading frame (ORF) of PxutCSP19 was cloned with a PrimeSTAR®® Max DNA Polymerase (TaKaRa, Liaoning, Dalian, China) and gene-specific primers containing restriction enzyme sites (BamH I and Xho I) (Table S2). The PCR products were detected on a 1.5% (w/v) agarose gel, and the expected bands were cut and purified using a HiPure Gel Pure DNA Mini Kit (Magen, Guangzhou, China). Next, BamH I and Xho I were used to digest the PxutCSP19 products and pET-30a (+) plasmids, followed by purification. A T4 DNA ligase (Thermo Fisher Scientific, Waltham, MA, USA) was applied to the construction of the recombinant plasmids pET-30a (+)/PxutCSP19. After being confirmed by sequencing, the plasmids were transformed into BL21 (DE3) competent cells so as to express recombinant proteins with 1.0 mM isopropyl β-D-thiogalactoside (IPTG). Because this recombinant protein pET-30a (+)/PxutCSP19 was insoluble, we applied a protein denaturation–renaturation approach to purify PxutCSP19 with an affinity chromatography technique, in which the denaturation buffer included 8 M urea and 1.0 mM β-mercaptoethanol.
In order to investigate the ligand-binding properties of PxutCSP19 to host odorants and insecticides, we first asked whether this fluorescent probe 1-NPN was available for the binding of PxutCSP19. To calculate the binding ability of PxutCSP19 to 1-NPN, we titrated different final concentrations of 1-NPN (2~20 μM) into Tris-HCl buffer (pH 7.4) containing 2 μM PxutCSP19. The binding constant (K1-NPN) of 1-NPN to this protein was determined with GraphPad Prism 7 (GraphPad Software Inc., San Diego, CA), as previously described. The solution was excited at 337 nm and the emission peak was monitored at 414 nm on an RF-5301PC spectrofluorometer (Shimadzu, Kyoto, Japan) using a quartz micro-cuvette filled with a 100 μL mixture, with 5 nm excitation and emission slit widths. If the host odorant molecules could displace more than 40% of the 1-NPN fluorescence from the binding cavity of PxutCSP19, the compounds would be continuously added up to 36 μM with triplicates. For the binding experiments, each compound would be added into the PxutCSP19/1-NPN (each 2 μM) complex with final concentrations of 2~20 μM. […] We used the Ki values to compare the binding affinities of various ligands with the equation: Ki = [IC50]/(1 + [1-NPN]/K1-NPN), where IC50 represents the ligand concentrations displacing one half of the initial protein/1-NPN fluorescence, and [1-NPN] is the free concentration of 1-NPN at 2 μM.

[1] = Wildtype (WT), ligand up to 20 μM or 36 μM, displacing half of protein/1-NPN fluorescence, read-out: IC50

Chain of PxutCSP19 (A0A194QJK0 entry or part of it): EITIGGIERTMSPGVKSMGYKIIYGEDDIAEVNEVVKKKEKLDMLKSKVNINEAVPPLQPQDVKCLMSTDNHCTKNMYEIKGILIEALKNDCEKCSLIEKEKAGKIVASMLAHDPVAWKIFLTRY

Compound	IC50	inhibition at 20 µM	further results
C=CC(C)(O)CCC=C(C)CCC=C(C)C (mixture of isomers) [Nerolidol]	> 20 µM	12.4%	–
CCCCCCO [1-Hexanol]	> 20 µM	39%	–
CC1=CCC2C(C1)C2(C)C (stereo not drawn) [3-Carene]	> 20 µM	35.1%	–
CC1=CCC(O)(C(C)C)CC1 (stereo not drawn) [4-Terpineol]	> 36 µM	> 40%	1-NPN fluorescence displaced: less than 50%
CC1=CC[C@@H]2C[C@H]1C2(C)C [(1R)-(+)-α-Pinene]	> 20 µM	38.4%	–
CCC/C=C/CO [(E)-2-Hexen-1-ol]	> 20 µM	35.6%	–
CCC/C=C/C=O [(E)-2-Hexenal]	> 20 µM	33.8%	–
CC/C=C\CCO [(Z)-3-Hexen-1-ol]	> 20 µM	35.8%	–
COP(=O)(NC(C)=O)SC (stereo not drawn) [Acephate, reference compound]	> 20 µM	37.1%	–
C/C(=N\C#N)N(C)Cc1ccc(Cl)nc1 [Acetamiprid, reference compound]	> 20 µM	42.9%	–
C/C=C(\C)C(=O)O[C@H]1C[C@@H](OC(C)=O)[C@@]2(C(=O)OC)CO[C@H]3[C@@H](O)[C@@](C)([C@]45O[C@@]4(C)[C@H]4C[C@@H]5O[C@@H]5OC=C[C@@]54O)[C@H]4[C@]1(CO[C@]4(O)C(=O)OC)[C@@H]32 [Azadirachtin, reference compound]	> 20 µM	34.5%	–
O=Cc1ccccc1 [Benzaldehyde]	> 20 µM	36.9%	–
C=C1C2CCC(C2)C1(C)C (stereo not drawn) [Camphene]	> 20 µM	34.5%	–
Cc1ccc(C(C)C)cc1O [Carvacrol]	> 20 µM	37.4%	–
CNC(=O)c1cc(Cl)cc(C)c1NC(=O)c1cc(Br)nn1-c1ncccc1Cl [Chlorantraniliprole, reference compound]	> 20 µM	43.6%	–
O=C(NC(=O)c1ccccc1Cl)Nc1ccc(Cl)cc1 [Chlorbenzuron, reference compound]	–	–	F.D. (fluorescent displacement rate of ligands) (Wildtype (WT)): 42.75%; IC50 [1]: > 20 µM
CC(C)=CCC/C(C)=C/C=O [Citral]	> 20 µM	39.7%	–
CC(C)=CCC[C@@H](C)CC=O [Citronellal]	–	–	F.D. (fluorescent displacement rate of ligands) (Wildtype (WT)): 34.20%; IC50 [1]: > 20 µM
CCCCCCCCCC=O [Decanal]	> 20 µM	28.7%	–
CC1(C)[C@H](C(=O)O[C@H](C#N)c2cccc(Oc3ccccc3)c2)[C@@H]1C=C(Br)Br [Deltamethrin, reference compound]	> 20 µM	39.3%	–
O=C(NC(=O)c1c(F)cccc1F)Nc1ccc(Cl)cc1 [Diflubenzuron, reference compound]	> 20 µM	27%	–

Compound	IC50	inhibition at 20 µM	further results
CCOC(C)=O [Ethyl acetate]	> 20 µM	37.6%	–
CCCC(=O)OCC [Ethyl butyrate]	> 20 µM	28.7%	–
CC(C)=CCC/C(C)=C/CC/C(C)=C/CO [Farnesol]	> 20 µM	27%	–
N#Cc1nn(-c2c(Cl)cc(C(F)(F)F)cc2Cl)c(N)c1[S+]([O-])C(F)(F)F (stereo not drawn) [Fipronil, reference compound]	> 20 µM	37.5%	–
CC(C)=CCC/C(C)=C/CO [Geraniol]	–	39%	–
CC(=O)OC/C=C(\C)CCC=C(C)C [Geranyl acetate]	> 20 µM	33.3%	–
CCCCCC=O [Hexanal]	> 20 µM	21.1%	–
O=[N+]([O-])NC1=NCCN1Cc1ccc(Cl)nc1 [Imidacloprid, reference compound]	> 20 µM	41.7%	–
c1ccc2[nH]ccc2c1 [Indole]	> 20 µM	39%	–
C=C(C)[C@H]1CC=C(C)CC1 [Limonene]	–	–	F.D. (fluorescent displacement rate of ligands) (Wildtype (WT)): 20.36%; IC50 [1]: > 20 µM
O=C1CCC[C@@H]2[C@H]3CCCN4CCC[C@@H](CN12)[C@@H]34 [Matrine, reference compound]	> 20 µM	40%	–
CNC(=O)ON=C(C)SC [Methomyl, reference compound]	> 20 µM	45.4%	–
COC(=O)c1ccccc1C [Methyl o-toluate]	–	–	F.D. (fluorescent displacement rate of ligands) (Wildtype (WT)): 37.28%; IC50 [1]: > 20 µM
C=CC(=C)CCC=C(C)C [Myrcene]	> 20 µM	32.4%	–
CCCCCCCCC=O [Nonanal]	> 20 µM	29.3%	–
CCCCCCCC=O [Octanal]	> 20 µM	22.8%	–
OCCc1ccccc1 [Phenethyl alcohol]	> 20 µM	39.7%	–
O=CCc1ccccc1 [Phenylacetaldehyde]	> 20 µM	27.3%	–
CCCSP(=O)(OCC)Oc1ccc(Br)cc1Cl (stereo not drawn) [Profenofos, reference compound]	> 20 µM	41%	–
CC1(C)[C@H]2O[C@H]2[C@H]2[C@](C)(O)[C@@H]3CC[C@@H]4[C@@H](O)[C@@]3(C[C@@H](O)[C@@]21O)C[C@@]4(C)O [Rhodojaponin III, reference compound]	–	–	F.D. (fluorescent displacement rate of ligands) (Wildtype (WT)): 38.52%; IC50 [1]: > 20 µM
C=C1CCC2(C(C)C)CC12 (stereo not drawn) [Sabinene]	> 20 µM	33.5%	–

Compound	IC50	inhibition at 20 µM	further results
CCc1ccc(C(=O)NN(C(=O)c2cc(C)cc(C)c2)C(C)(C)C)cc1 [Tebufenozide, reference compound]	> 20 µM	48.5%	–
CN1COCN(Cc2cnc(Cl)s2)/C1=N\[N+](=O)[O-] [Thiamethoxam, reference compound]	> 20 µM	44.6%	–
CS/C(C)=N\OC(=O)N(C)SN(C)C(=O)O/N=C(\C)SC [Thiodicarb, reference compound]	> 20 µM	37.4%	–
COP(=O)(OC)C(O)C(Cl)(Cl)Cl (stereo not drawn) [Trichlorphon, reference compound]	–	–	F.D. (fluorescent displacement rate of ligands) (Wildtype (WT)): 33.61%; IC50 [1]: > 20 µM
O=C(NC(=O)c1ccccc1Cl)Nc1ccc(OC(F)(F)F)cc1 [Triflumuron, reference compound]	> 20 µM	28%	–
CCCCCCCCCCC=O [Undecanal]	> 20 µM	27.7%	–
Cc1ccc(C(C)C)cc1 [p-Isopropyl toluene]	–	–	F.D. (fluorescent displacement rate of ligands) (Wildtype (WT)): 32.32%; IC50 [1]: > 20 µM
C/C1=C\CC/C(C)=C/CC(C)(C)/C=C/C1 [α-Caryophyllene]	–	–	F.D. (fluorescent displacement rate of ligands) (Wildtype (WT)): 7.48%; IC50 [1]: > 20 µM
CC1(C)C(C=C(Cl)Cl)C1C(=O)OC(C#N)c1cccc(Oc2ccccc2)c1 (stereo not drawn) [α-Cypermethrin, reference compound]	> 20 µM	5.65%	–
CC1=CC[C@H](C(C)C)C=C1 [α-Phellandrene]	> 20 µM	34.1%	–
CC1=CCC2CC1C2(C)C (stereo not drawn) [α-Pinene]	> 20 µM	34.6%	–
CC1=CC=C(C(C)C)CC1 [α-Terpinene]	> 36 µM	> 40%	1-NPN fluorescence displaced: less than 50%
CC1=CC[C@@H](C(C)(C)O)CC1 [α-Terpineol]	> 36 µM	> 40%	1-NPN fluorescence displaced: less than 50%
C=C1CC/C=C(\C)CC[C@@H]2[C@@H]1CC2(C)C [β-Caryophyllene]	–	–	binding with PxutCSP19 (in words): no binding
C=C[C@]1(C)CC[C@@H](C(=C)C)C[C@H]1C(=C)C [β-Elemene]	–	–	binding with PxutCSP19 (in words): no binding
C=C1CCC2CC1C2(C)C (stereo not drawn) [β-Pinene]	> 20 µM	31.2%	–
CC1=CCC(C(C)C)=CC1 [γ-Terpinene]	> 36 µM	> 40%	1-NPN fluorescence displaced: less than 50%
Emamectin benzoate [reference compound]	–	–	F.D. (fluorescent displacement rate of ligands) (Wildtype (WT)): 46.98%; IC50 [1]: > 20 µM
Farnesene	–	–	F.D. (fluorescent displacement rate of ligands) (Wildtype (WT)): 23.21%; IC50 [1]: > 20 µM
